Test results from US7098332B2, “5,8-Dihydro-6H-pyrido[2,3-d]pyrimidin-7-ones” (Hoffmann-La Roche Inc., priority 2002, dated 2006).

How the values were obtained:
PDGFR = PDGFR kinase HTRF assay; type: biochemical; conditions: 2.3 μM ATP
Protocol: (§1) To determine inhibition of KDR, FGFR, EGFR, and PDGFR activity, kinase assays were conducted using an HTRF (Homogeneous Time Resolved Fluorescence) assay. This assay is described in A. J. Kolb et. al., Drug Discovery Today, 1998, 3(7), p 333.
(§2) Kinase activity assays were performed in 96-well polypropylene plates (Falcon) with a total volume of 90 μL in each well. Each well contained 1 μM KDR substrate (Biotin-EEEEYFELVAKKKK), 1 nM activated KDR, and a test compound with one of 8 assay concentrations ranging from 100 μM to […] (1:5 serial dilution). The kinase activity assay was done in the presence of 100 mM HEPES, pH 7.4, 1 mM DTT, 0.1 mM Na2VO4, 25 mM MgCl2, 50 mM NaCl (from KDR stock solution), 1% DMSO (from compound), 0.3 mM ATP (at Km concentration) and 0.02% BSA. The reaction was incubated at 37° C. for 30 minutes. To stop the KDR reaction, 72 μL of reaction mixture was transferred into a STOP plate containing 18 μL of revelation buffer (20 mM EDTA, 50 mM HEPES, pH 7.4, 0.02% BSA, 10 nM Eu-labelled anti-pY antibody (final conc. 2 nM), and 100 nM streptavidin (final conc. 20 nM)). After mixing, 35 μL of solution was transferred into duplicate wells of a 384-well black plate (Costar), and read at 615/665 nm on a Wallac Victor 5 reader.
The PDGFR kinase activity assay was performed with 1 μM substrate (Biotin-EEEEYFELV), 1.0 nM PDGFR, test compounds, 100 mM HEPES, pH 7.4, 1 mM DTT, 5 mM MgCl2, 2 mM MnCl2, 1% DMSO, 2.3 μM ATP (Km for PDGFR), 0.1 mM Na2VO4, and 0.02% BSA. The rest of the assay was performed in the same manner as the KDR assay.
(§3) Compound IC50 values were determined from duplicate sets of data, and calculated by using Excel and fitting data to equation Y=[(a−b)/{1+(X/c)^d]+b, where a and b are enzyme activity in the presence of no test inhibitor compound and an infinite amount of inhibitor test compound, respectively, c is the IC50 and d is the hill constant of the compound response. The IC50 value is the concentration of test compound that reduces by 50% the enzyme activity under the test conditions described.

EGFR = EGFR (Homo sapiens, UniProt P00533); experiment: EGFR kinase HTRF assay; type: biochemical; conditions: 0.5 μM ATP
Protocol: as §1, §2
The EGFR kinase activity assay was performed with 1 μM substrate (Biotin-EEEEYFELV), 1.5 nM EGFR, test compounds, 100 mM HEPES, pH 7.4, 1 mM DTT, 5 mM MgCl2, 2 mM MnCl2, 1% DMSO, 0.5 μM ATP (Km for EGFR), 0.1 mM Na2VO4, and 0.02% BSA. The rest of the assay was performed in the same manner as the KDR assay.
as §3

FGFR = target: T1, FGFR; experiment: FGFR kinase HTRF assay; type: biochemical; conditions: 10 μM ATP
T1 construct: fused on or other part: GST tag
Protocol: as §1, §2
FGFR, EGFR, and PDGFR activity assays were carried out as described above for the KDR activity assay with the following differences. GST-tagged FGFR enzyme was activated at room temperature for 1 hour in the following activation buffer: 100 mM HEPES, pH 7.4, 50 mM NaCl, 20 mM MgCl2, and 4 mM ATP. The kinase activity assay was performed with 1 μM substrate (Biotin-EEEEYFELV), 1.5 nM activated FGFR, and test compound in the presence of 100 mM HEPES, 1 mM DTT, 0.4 mM MgCl2, 0.4 mM MnCl2, 50 mM NaCl, 1% DMSO, 10 μM ATP (Km=8.5 μM for FGFR), 0.1 mM Na2VO4, and 0.02% BSA, in a total volume of 90 μL. The rest of the assay was performed in the same manner as KDR assay.
as §3

KDR = target: T2, KDR (Homo sapiens, UniProt P35968); experiment: KDR kinase HTRF assay; type: biochemical; conditions: 0.3 mM ATP
T2 construct: EEE tag
Protocol: as §1
Prior to kinase reaction, recombinant EEE-tagged KDR was activated in the presence of activation buffer (50 mM HEPES, pH 7.4, 1 mM DTT, 10% glycerol, 150 mM NaCl, 0.1 mM EDTA, 26 mM MgCl2, and 4 mM ATP). The enzyme was incubated at 4° C. for 1 hour.
as §2, §3

[1] = system: Human umbilical vein endothelial cells; experiment: FGF-stimulated HUVEC proliferation assay (BrdU); type: cell-based; conditions: FGF 5 ng per mL, BrdU labeling, read-out: HUVEC/bFGFR IC50
Protocol: (§4) The antiproliferative activity of test-compounds of this invention in cell-based assays was evaluated by BrdU assay using the BrdU kit (Roche Biochemicals 1-647-229). Human umbilical vein endothelial cells (Clonetics CC-2519) were cultured in EGM-2 (Clonetics CC-3162) medium and seeded at 10000 cells per well in a volume of 200 μL of EGM-2 (Clonetics CC-3162) media in a 96-well flat bottom plates (Costar 3595) overnight. After 24 hours of growth at 37° C. with 5% CO2, the incubation media was removed slowly by aspiration and the content of each well was washed with 300 μL pre-warmed EBM-2 (Clonetics CC-3156) containing 50 μg per mL of gentamycin and 50 ng per mL of amphotercin-B (Clonetics CC-4083). […]
(§5) After 24 hour exposure to the test compounds, the cells were labeled with BrdU (Roche Biochemicals 1-647-229), by adding 20 μL per well of BrdU labeling reagent that has been diluted (1:100) in serum starvation medium. […] The plates were read at 450 nm with reference wavelength of 650 nm. The percent inhibition for each test compound was calculated by subtracting the absorbency of the blank (no cells) wells from all wells, then subtracting the division of the average absorbency of each test duplicate by the average of the controls from 1. […] The IC50 is determined from the linear regression of a plot of the logarithm of the concentration versus percent inhibition.

[2] = system: Human umbilical vein endothelial cells; experiment: VEGF-stimulated HUVEC proliferation assay (BrdU); type: cell-based; conditions: VEGF 20 ng per mL, BrdU labeling, read-out: HUVEC/VEFG IC50
Protocol: as §4, §5

Measured: IC50

T2 sequence (P35968 20-1356): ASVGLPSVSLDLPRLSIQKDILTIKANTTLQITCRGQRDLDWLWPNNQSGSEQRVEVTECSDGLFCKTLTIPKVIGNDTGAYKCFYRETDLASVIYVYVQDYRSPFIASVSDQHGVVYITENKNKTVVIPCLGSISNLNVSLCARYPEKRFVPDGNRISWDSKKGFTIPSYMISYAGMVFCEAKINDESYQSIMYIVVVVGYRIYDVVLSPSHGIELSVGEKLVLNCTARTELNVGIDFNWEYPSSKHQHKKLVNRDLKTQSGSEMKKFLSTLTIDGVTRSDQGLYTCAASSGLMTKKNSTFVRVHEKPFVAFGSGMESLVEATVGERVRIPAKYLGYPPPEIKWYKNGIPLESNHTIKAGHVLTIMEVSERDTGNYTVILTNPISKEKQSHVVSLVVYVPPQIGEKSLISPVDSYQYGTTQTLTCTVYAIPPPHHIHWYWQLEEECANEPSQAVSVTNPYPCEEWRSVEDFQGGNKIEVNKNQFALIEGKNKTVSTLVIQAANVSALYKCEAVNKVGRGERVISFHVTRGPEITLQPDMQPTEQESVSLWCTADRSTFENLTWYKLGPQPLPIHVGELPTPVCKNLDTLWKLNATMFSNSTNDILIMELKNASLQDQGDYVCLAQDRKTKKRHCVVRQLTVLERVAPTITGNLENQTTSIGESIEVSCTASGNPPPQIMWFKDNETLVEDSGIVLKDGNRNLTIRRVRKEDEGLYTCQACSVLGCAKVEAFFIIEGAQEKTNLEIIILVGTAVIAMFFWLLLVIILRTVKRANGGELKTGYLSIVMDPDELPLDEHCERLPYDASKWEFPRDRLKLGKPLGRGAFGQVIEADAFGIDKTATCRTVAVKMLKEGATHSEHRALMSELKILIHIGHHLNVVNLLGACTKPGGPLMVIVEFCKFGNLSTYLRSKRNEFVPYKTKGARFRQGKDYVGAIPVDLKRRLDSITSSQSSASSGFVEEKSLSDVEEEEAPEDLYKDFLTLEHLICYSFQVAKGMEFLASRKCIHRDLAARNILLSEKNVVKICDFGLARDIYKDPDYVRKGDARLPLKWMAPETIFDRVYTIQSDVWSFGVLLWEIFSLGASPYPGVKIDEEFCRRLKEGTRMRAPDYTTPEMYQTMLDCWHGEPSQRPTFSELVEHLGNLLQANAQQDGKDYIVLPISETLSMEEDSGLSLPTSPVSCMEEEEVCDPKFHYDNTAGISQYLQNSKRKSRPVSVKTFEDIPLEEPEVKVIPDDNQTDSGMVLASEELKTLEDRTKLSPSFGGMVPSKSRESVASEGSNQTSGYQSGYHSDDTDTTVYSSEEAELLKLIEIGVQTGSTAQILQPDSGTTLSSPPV
Sequence of EGFR (P00533 25-1210, species assumed): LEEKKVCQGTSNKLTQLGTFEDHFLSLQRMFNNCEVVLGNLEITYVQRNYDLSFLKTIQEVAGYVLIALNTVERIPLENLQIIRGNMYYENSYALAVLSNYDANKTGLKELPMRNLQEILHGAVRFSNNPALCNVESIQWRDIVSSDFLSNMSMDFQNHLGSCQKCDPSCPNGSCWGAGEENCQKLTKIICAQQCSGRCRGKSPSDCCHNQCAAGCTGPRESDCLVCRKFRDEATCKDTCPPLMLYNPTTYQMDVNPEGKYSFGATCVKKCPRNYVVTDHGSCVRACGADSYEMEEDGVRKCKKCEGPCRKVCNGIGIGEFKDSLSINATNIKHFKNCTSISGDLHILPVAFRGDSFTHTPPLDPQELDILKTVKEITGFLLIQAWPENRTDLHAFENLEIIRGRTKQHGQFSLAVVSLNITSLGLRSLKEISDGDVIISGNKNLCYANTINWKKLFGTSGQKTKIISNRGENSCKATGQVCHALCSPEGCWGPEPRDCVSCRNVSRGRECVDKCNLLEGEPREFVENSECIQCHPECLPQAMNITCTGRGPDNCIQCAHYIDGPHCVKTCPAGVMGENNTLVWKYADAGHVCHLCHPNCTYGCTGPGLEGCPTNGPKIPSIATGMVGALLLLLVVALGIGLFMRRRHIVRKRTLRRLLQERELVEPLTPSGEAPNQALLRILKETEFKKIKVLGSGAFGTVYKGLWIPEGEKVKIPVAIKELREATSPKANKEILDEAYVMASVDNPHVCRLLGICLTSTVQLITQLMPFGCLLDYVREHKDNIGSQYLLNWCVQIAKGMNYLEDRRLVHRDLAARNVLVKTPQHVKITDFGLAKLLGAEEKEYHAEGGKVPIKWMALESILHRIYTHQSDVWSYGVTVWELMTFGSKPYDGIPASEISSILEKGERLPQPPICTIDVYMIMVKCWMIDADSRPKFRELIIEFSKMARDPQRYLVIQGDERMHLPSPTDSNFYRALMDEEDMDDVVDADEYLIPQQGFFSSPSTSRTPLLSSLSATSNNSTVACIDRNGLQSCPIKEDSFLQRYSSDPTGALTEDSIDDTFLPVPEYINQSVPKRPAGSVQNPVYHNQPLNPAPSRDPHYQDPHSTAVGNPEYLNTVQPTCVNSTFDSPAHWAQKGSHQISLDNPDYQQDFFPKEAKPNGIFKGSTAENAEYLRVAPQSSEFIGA

COc1cc(OC)cc(C2Cc3cnc(Nc4ccccc4)nc3N(c3ccccc3)C2=O)c1 (stereo not drawn) [Example 3d, 6-(3,5-Dimethoxy-phenyl)-8-phenyl-2-phenylamino-5,8-dihydro-6H-pyrido[2,3-d]pyrimidin-7-one]
< 10 µM: all assays above

O=C1C(c2c(Cl)cccc2Cl)Cc2cnc(Nc3ccccc3)nc2N1c1ccccc1 (stereo not drawn) [Example 2c, 6-(2,6-Dichloro-phenyl)-8-phenyl-2-phenylamino-5,8-dihydro-6H-pyrido[2,3-d]pyrimidin-7-one]
< 10 µM: all assays above
